Data published in patent publication US20110207697A1, “XANTHOHUMOL COMPOSITIONS AND METHODS FOR TREATING SKIN DISEASES OR DISORDERS” (Betal, LLC, priority 2008, published 2011).
≈ marks a conversion by molar mass, not a printed value.

Tests used:
[1] = Singlet oxygen absorbance capacity (SOAC)
From the text: [table] Alpha-tocopherol (vitamin E) was used as the calibration standard, and the SOAC result is expressed as mmol VtE/g. The higher the SOAC score, the higher the singlet oxygen-quenching capacity. […] Singlet oxygen has been postulated to be a highly reactive and toxic intermediate against skin. It is known that the acne-causing bacterium P. acnes naturally produces high amounts of intracellular porphyrins, mostly coproporphyrin (Ashkenazi et al. 2003). Singlet oxygen can be generated on the skin surface from P. acnes porphyrins under sunlight and induce serious skin damage ([…] et al. 1996 Biochem. Biophys. Res. Commun. 223: 578-582). Various skin disorders progress through a singlet oxygen-dependent mechanism, including acne, atopic dermatitis, and skin aging. Both hydrophilic and lipophilic oxygen radical absorbance capacity (ORAC) assays were carried out at Brunswick Laboratory (Wareham, Mass.) based on the modified ORACfl method reported by Ou et al. (2001 J. Agric. Food Chem. 49: 4619-4626, 2002 J. Agr. Food Chem. 50: 3122-3128). Trolox, a water-soluble vitamin E analog, was used as the calibration standard. The data are expressed as mmole of Trolox equivalents per gram (mmol TE/g). The acceptable precision of the ORAC assay is a 15% relative standard deviation. Caffeic acid was used as the calibration standard. Hydroxyl radical ORAC (HOR-AC) is expressed as mmole caffeic acid equivalent per gram (mmol CAE/g). Trolox was used as the calibration standard. The peroxyl nitrite ORAC (NORAC) result is expressed as mmol TE/g. Alpha-tocopherol (vitamin E) was used as the calibration standard, and the singlet oxygen absorbance capacity (SOAC) result is expressed as mmole a-tocopherol equivalent (mmol VtE) per gram (Aubry et al. 1989). […] Radical-scavenging activity was measured by the change in absorbance at 517 nm with the DPPH result expressed as mmol TE/g. […] The FRAP result is expressed as mmol TE/g (Ou et al. 2002b). Superoxide dismutase (SOD) was used as a calibration standard; the SOD result is expressed as kilo unit SOD equivalent (kunitSODeq) per gram.

[2] = tested on: S. epidermidis (ATCC 12228); experiment: Antimicrobial susceptibility, broth dilution (MIC/MBC); assay type: cell-based, Staphylococcus epidermidis
Description: The antibacterial effects of seven hops components against five different strains of bacteria involved in primary or secondary skin and soft tissue infections was evaluated, with broth dilution methods. […] Antimicrobial susceptibility testing was performed using a broth dilution method. Gentamicin or ampicillin was used as a control to verify the methodology. A stock solution (20 mg/ml) of the test substance (or vehicle control) was prepared in dimethyl sulfoxide. Serial dilution was done in microwell plates. Reinforced Clostridial Medium was used for P. acnes (ATCC 6919). Three hundreds […] of the test substance was added to the test tube containing P. acnes (10^5 CFU/ml) in 2.7 ml of cultures grown under anaerobic conditions. Mueller-Hinston Broth suitable for culturing S. epidermidis (ATCC 12228), K. rhizophila (formerly M. luteus) (ATCC 9341), and S. aureus (ATCC […]), and Brain Heart Infusion Broth suitable for culturing S. pyogenes (ATCC 14289) were used. A total of […] of the test substance was added to the test tube containing the other microorganisms (10^5CFU/ml) in 0.9 ml of cultures grown under controlled conditions. […] Samples from those tubes that scored positive was plated onto an agar plate and incubated under controlled conditions.

[3] = target: T1, interstitial collagenase (MMP-1) (Homo sapiens, UniProt P03956); experiment: Anticollagenase assay; assay type: biochemical; details: mean of three measurements
T1 construct: host or cells: mammalian cells
T1 sequence (P03956 100-469): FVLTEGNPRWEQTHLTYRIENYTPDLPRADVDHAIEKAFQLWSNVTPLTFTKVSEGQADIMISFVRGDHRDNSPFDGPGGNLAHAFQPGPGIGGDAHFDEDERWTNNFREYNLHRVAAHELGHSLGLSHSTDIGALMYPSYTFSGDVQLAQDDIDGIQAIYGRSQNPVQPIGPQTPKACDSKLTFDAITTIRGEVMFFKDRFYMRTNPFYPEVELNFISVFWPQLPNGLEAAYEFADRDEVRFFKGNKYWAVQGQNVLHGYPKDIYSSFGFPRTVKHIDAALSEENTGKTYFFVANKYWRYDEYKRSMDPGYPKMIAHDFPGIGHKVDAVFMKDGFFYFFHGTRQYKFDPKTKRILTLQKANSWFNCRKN
Description: Human recombinant matrix metalloproteinase-MMP-1) pro-enzyme, expressed in mammalian cells, and human nutrophil MMP-8 pro-enzyme were activated with 4-aminophenylmercuric acetate for 60 min 37 1 C, respectively (Knight et al. 1992 FEBS Lett. 296: 263-266). Hop components and vehicle were preincubated with 5 nM MMP- and 6 nM MMP-8 active enzymes in a modified MOPS buffer, pH 7.2, for 60 minutes at 37 C. The reaction was initiated by addition of […] Mca-Pro-Leu-Gly-Leu-Dpa-Ala-Arg for another 120-minute incubation period. The determination of the amount of Mca-Pro-Leu-Gly formed was read spectrofluorimetrically at 340/400 nm. Tissue inhibitors of metalloproteinase TIMP-1 and TIMP-2 were used as positive controls (Olson et 1997 J. Biol. Chem. 272: 29975-29983).

MIC ([2]; 1 day): 3 µg/mL (≈ 8.46 µM)
MIC ([2]; Staphylococcus epidermidis, ATCC12228): 1000 µg/mL (≈ 2820 µM)
Inhibitory ratio (%) MMP-1 ([3]; 10 μg/mL): 25%
Inhibitory ratio (%) MMP-1 ([3]; 30 μg/mL): 65%
Inhibitory ratio (%) MMP-1 ([3]; 100 μg/mL): 91%
Structure (SMILES): COc1cc(O)c(CC=C(C)C)c(O)c1C(=O)/C=C/c1ccc(O)cc1 [Xanthohumol (7), 3′-[3,3-dimethylallyl]-2′,4′,4-trihydroxy-6′-methoxychalcone]
SOAC value, times higher than that of vitamin E or Polyphenon 60 [1]: 8-15 times
SOAC (Vitamin E equivalent) ([1]; expressed as mmol VtE/g): 14.1 Vitamin E equivalent
MBC [2]: [10] g/mL
